Tested on: C57Bl6/J mice challenged with an intracerebroventricular injection of Aβ1-42 oligomers (AβO)
Assay: Y-maze test (spatial working memory) in mice icv injected with AβO
Type: in vivo, mouse
Conditions: day +4
Experimental: Briefly, 144 C57Bl6/J male mice (3 months of age) were received and housed (4 to 5 per cage) in quarantine during 7 days, or longer. Test items were dosed per os (through oral gavage) once daily at different concentrations from day −1 to day +17.
At day 0, mice received a single icv injection of vehicle or AβO.
At day +4 (i.e. four days after disease induction), spatial working memory was assessed using the Y-maze test.
The different experimental groups are defined as follow: • GROUP A (vehicle CTRL): po vehicle AND icv injection of vehicle (n=12) • GROUP B (APO CTRL): po vehicle AND icv injection of AβO (n=12) • GROUP C (positive CTRL): po Donepezil subchronic AND icv injection of AβO (n=12) • GROUP D (Donecopride CTRL): po Donecopride (9 mg/kg) AND icv injection of vehicle (n=12) • GROUP E (Flucopride CTRL): po Flucopride (9 mg/kg) AND icv injection of vehicle (n=12) • GROUP F (Donecopride Treated): po Donecopride (1 mg/kg) AND icv injection of AβO (n=12) • GROUP G (Donecopride Treated): po Donecopride (3 mg/kg) AND icv injection of AβO (n=12) • GROUP H (Donecopride Treated): po Donecopride (9 mg/kg) AND icv injection of AβO (n=12) • GROUP I (Fluocopride Treated): po Flucopride (1 mg/kg) AND icv injection of AβO (n=12) • GROUP J (Flucopride Treated): po Flucopride (3 mg/kg) AND icv injection of AβO (n=12) • GROUP K (Flucopride Treated): po Flucopride (9 mg/kg) AND icv injection of AβO (n=12) • GROUP L (positive CTRL): ip Donepezil acute on test days AND icv injection of AβO (n=12)
For per os dosing, Donecopride and Flucopride were formulated by solubilization in 0.9% NaCl. Compound dosing (total volume of 200 μL) started one day before induction of the disease (through icv injection of AβO) and was done for 19 consecutive days.
Single intra-cerebroventricular injection of 144 mice with vehicle or APO (max. 24 mice per day, all mice randomized): under anesthesia (ip injection of a mixture of ketamine/xylasine at a dose of 110 and 15 mg/kg, respectively) AβO (1 μL), or vehicle (1 μL) were injected into the right lateral ventricle. Injections were made using 10 μL Hamilton micro syringes fitted with a 26-gauge needle. The procedure was terminated by a subcutaneous injection of metacam (analgesia) at a dose of 5 mg/kg. Animals were then placed individually in their home-cage and the cage was placed in a heated cabinet until the animal has fully recovered. Animals were carefully monitored to control recovery after anesthesia.
Preparation of APO: Aβ1-42 was obtained from Bachem (ref H1368) (batch number: 1052301). The preparation of stable Aβ1-42 oligomers was performed as described in Garcia et al. (2010) J. Neurosci. 30:7516-7527. The oligomeric preparation (identified as Batch #2016-14) contained a mixture of stable trimers and tetramers of Aβ1-42, as well as monomeric forms of the peptide. All oligomer preparations used were previously characterized in terms of oligomer composition and in vitro neurotoxicity.
6 independent trials involving each 24 mice (i.e. 2 mice from each experimental group) for a total of 144 mice at day +4—Behavioral tests were performed 1 h after dosing.
Detailed protocol: Immediate spatial working memory performance was assessed by recording spontaneous alternation behavior in a Y-maze. The maze is made of opaque Plexiglas and each of the three arms is 40 cm long, 14 cm high, 10 cm wide and positioned at equal angles. The apparatus is placed in a homogeneously lit test room to obtain 12-15 lux in all arms as well as in the central zone. Mice are placed in the middle of one arm and allowed to explore the maze freely during 5 min session. The series of arm entries are video recorded (Smart v3.0 software, Bioseb) and an arm entry is considered complete when the hind paws of the mouse are completely placed in the arm. Alternation is defined as successive entries into the 3 arms on overlapping triplet sets. […]

[1] = 9 mg/kg/day po, icv vehicle (no AβO)

COc1cc(N)c(Cl)cc1C(=O)CCC1CCN(CC2CCCCC2)CC1 [Donecopride]
alternation behavior (Y-maze) (1 mg/kg/day po, icv AβO): 56.6±3.7%
alternation behavior (Y-maze) (3 mg/kg/day po, icv AβO): 65.5±4.4%
alternation behavior (Y-maze) (9 mg/kg/day po, icv AβO): 64.3±5.1%
alternation behavior (Y-maze) [1]: 59.3±4.0%

COc1cc2c(cc1OC)C(=O)C(CC1CCN(Cc3ccccc3)CC1)C2 (stereo not shown) [Donepezil, reference compound]
alternation behavior (Y-maze) (ip acute on test day, icv AβO (Group L)): 60.8±1.9%
alternation behavior (Y-maze) (per os subchronic, icv AβO (Group C)): 66.1±1.8%

COc1cc(N)c(F)cc1C(=O)CCC1CCN(CC2CCCCC2)CC1 [Flucopride]
alternation behavior (Y-maze) (1 mg/kg/day po, icv AβO): 67.1±2.7%
alternation behavior (Y-maze) (3 mg/kg/day po, icv AβO): 65.3±4.1%
alternation behavior (Y-maze) (9 mg/kg/day po, icv AβO): 59.1±3.0%
alternation behavior (Y-maze) [1]: 63.1±2.3%
